Where a SMILES comes first, the peptide text is derived from it.
Assay: Maximum solubility of the small peptide
Assay type: physicochemical
Details: neutral pH

## CC[C@H](C)[C@H](NC(=O)[C@H](CC(C)C)NC(=O)[C@@H](N)CCCCN)C(=O)N[C@@H](CCSC)C(=O)N[C@H](C(=O)O)C(C)C [Lys-Leu-Ile-Met-Val] (H-KLIMV-OH)
4 °C
  maximum solubility: approximately 0.4 mg/mL
Room temperature
  maximum solubility: approximately 0.7 mg/mL

From paper PMC13659687, “Cloning, expression, tertiary structure, activity characteristics, design of inhibitor, hydrolysis and inhibition mechanisms analysis of carp adipose triglyceride lipase (ATGL)” (Food Chemistry: Molecular Sciences, 2026)
